Assay [1] concerns MCF7. Description: Antiproliferative activity against human MCF7 cells assessed as inhibitory ratio at 10 uM after 72 hrs by MTT assay. The format is functional. The settings on record: MCF7, 72 h.
The nature of assay [2]: Antiproliferative activity against human HCT116 cells assessed as inhibitory ratio at 10 uM after 72 hrs by MTT assay. It is filed as functional. The conditions noted are these: HCT-116, 72 h.
For another assay, the system named is HeLa. Description: Antiproliferative activity against human HeLa cells after 72 hrs by MTT assay. It is filed as functional, cell-based. A general note: Tetrazolium assays rely on reduction of a dye to a coloured formazan, in cell work by metabolically active cells.
Assay [3] is described as follows: Antiproliferative activity against human U87MG cells after 72 hrs by MTT assay. The format is functional, cell-based, U-87MG ATCC. The settings on record: U-87 MG.
Assay [4] in a line: Antiproliferative activity against human HCT116 cells after 72 hrs by MTT assay. It is filed as functional, cell-based. The conditions noted are these: HCT-116, 72 h.
The subject of the next assay is A549. Description: Antiproliferative activity against human A549 cells after 72 hrs by MTT assay. It is filed as functional, cell-based. The conditions noted are these: A549, 72 h.
For assay [5], the system named is MCF7. Description: Antiproliferative activity against human MCF7 cells after 72 hrs by MTT assay. It is filed as functional, cell-based. The conditions noted are these: MCF7, 72 h.
The test system of assay [6] is HCT-116. Description: Induction of apoptosis in human HCT116 cells assessed as cell shrinking and vacuolization, chromatin condensation and nuclear fragmentation after 24 hrs by Hoechst staining based phase contrast microscopy. The format is functional.
For assay [7], the system named is HCT-116. Description: Inhibition of PI3K/Akt in human HCT116 cells assessed as Akt phosphorylation at 10 uM after 1 hr by Western blotting analysis. The format is cell-based.

Active and inactive are the calls of the source. The rule behind the calls is not given here.

A word on the inhibition: it is how much of the control response was suppressed. As to `CN(CCCC(=O)N1CCOCC1)c1nc(-c2cc(C(N)=O)cc(C(F)(F)F)c2)nc(N2CCOCC2)n1`, the inhibition at 10 µM with MCF7 [1] came out at 38.5%; in assay [2], 44.8%.

With `CS(=O)(=O)N1CCN(C(=O)CNc2nc(-c3cc(C(N)=O)cc(C(F)(F)F)c3)nc(N3CCOCC3)n2)CC1`, the inhibition at 10 µM with MCF7 [1] was found to be 19.3%; in assay [2] it was 29.8%.

For `CN(CCCC(=O)N1CCN(S(C)(=O)=O)CC1)c1nc(-c2cc(C(N)=O)cc(C(F)(F)F)c2)nc(N2CCOCC2)n1`, the inhibition at 10 µM was determined as 37.7% in the assay with MCF7 [1] and 40.8% in assay [2].

Turning to `CN1CCN(c2nc(-c3cc(C(N)=O)cc(C(F)(F)F)c3)nc(N3CCOCC3)n2)CC1`, the inhibition at 10 µM in the assay on MCF7 [1] was 40.2%; in [2], 36.2%.

One may read the IC50 as the concentration that gives 50% inhibition. Consider `NC(=O)c1cc(O)cc(-c2nc(N3CCOCC3)nc(N3CCOCC3)n2)c1`, for which the inhibition at 10 µM with MCF7 [1] is 65.8%; in assay [2], 77.9%. Also, the IC50 in the assay with HeLa was 8170 nM; in [3], 3210 nM; in assay [4], 1190 nM; in the assay with A549, 3720 nM; in the assay with MCF7 [5], 2170 nM.

Regarding `NC(=O)c1cccc(-c2nc(N3CCOCC3)nc(N3CCOCC3)n2)c1`, the inhibition at 10 µM with MCF7 [1] was 38%; in [2] it was 51.1%.

Regarding `CS(=O)(=O)N1CCN(c2nc(-c3cc(C(N)=O)cc(C(F)(F)F)c3)nc(N3CCOCC3)n2)CC1`, the inhibition at 10 µM with MCF7 [1] stood at 47.4%; in assay [2] it was 19.4%.

For `NC(=O)c1cc(-c2nc(N3CCOCC3)nc(N3CCOCC3)n2)ccc1Cl`, the inhibition at 10 µM was 34.4% with MCF7 [1] and 35.6% in [2].

Regarding `NC(=O)c1cc(OC(F)(F)F)cc(-c2nc(N3CCOCC3)nc(N3CCOCC3)n2)c1`, the figures for the inhibition at 10 µM (with MCF7 [1]; in assay [2]) were 70.7% and 89.3%, respectively. In addition, the IC50 in the assay with HeLa was 4830 nM; in assay [3], 1530 nM; in assay [4], 900 nM; in the assay on A549, 2370 nM; with MCF7 [5] it was 1250 nM. In addition, the Activity entry with HCT-116 [6] was “Dose-dependent effect”. In the assay with HCT-116 [7], the inhibition result was “Active”.

Take `CS(=O)(=O)NC1CCN(c2nc(-c3cc(C(N)=O)cc(C(F)(F)F)c3)nc(N3CCOCC3)n2)CC1`: the inhibition at 10 µM came to 49.3% in the assay on MCF7 [1] and 19% in assay [2].

With `COC(=O)c1cc(-c2nc(N3CCOCC3)nc(N3CCOCC3)n2)cc(C(F)(F)F)c1`, the inhibition at 10 µM with MCF7 [1] was determined as 37.2%; in assay [2] it was 40%.

For `COc1ccc(-c2nc(N3CCOCC3)nc(N3CCOCC3)n2)cc1C(N)=O`, the inhibition at 10 µM with MCF7 [1] was found to be 36.2%; in assay [2] it was 40.4%.

For the molecule `NC(=O)c1cc(-c2nc(NCC(=O)N3CCOCC3)nc(N3CCOCC3)n2)cc(C(F)(F)F)c1`, the inhibition at 10 µM in the assay on MCF7 [1] is 30.3%; in [2], 29.2%.

With `NC(=O)c1cc(OCc2ccccc2)cc(-c2nc(N3CCOCC3)nc(N3CCOCC3)n2)c1`, the inhibition at 10 µM with MCF7 [1] was found to be 32.5%; in assay [2] it was 31.6%.

Consider `CS(=O)(=O)N1CCC(Nc2nc(-c3cc(C(N)=O)cc(C(F)(F)F)c3)nc(N3CCOCC3)n2)CC1`, for which the inhibition at 10 µM in the assay with MCF7 [1] is 30.9%; in assay [2], 42.9%.

With `NC(=O)c1cc(-c2nc(N3CCOCC3)nc(N3CCOCC3)n2)cc(C(F)(F)F)c1`, the inhibition at 10 µM in the assay with MCF7 [1] turned out to be 59.3%; in assay [2] it was 71.4%. For the same molecule, the IC50 stood at 8070 nM with HeLa; 11200 nM in [3]; 2430 nM in assay [4]; 8230 nM with A549; 4970 nM in the assay with MCF7 [5].

`NC(=O)c1cc(-c2nc(N3CCOCC3)nc(N3CCOCC3)n2)ccc1OCc1ccccc1`: the inhibition at 10 µM was 31.2% in the assay with MCF7 [1] and 29.9% in assay [2].

On to `O=C(O)c1cc(-c2nc(N3CCOCC3)nc(N3CCOCC3)n2)cc(C(F)(F)F)c1`, for which the inhibition at 10 µM was determined as 34.4% in the assay on MCF7 [1] and 44.9% in assay [2].

`Nc1cc(C(F)(F)F)c(-c2cc(N3CCOCC3)nc(N3CCOCC3)n2)cn1` [BUPARLISIB]: the inhibition at 10 µM in the assay with MCF7 [1] stood at 84%; in assay [2] it was 89.5%. The IC50 came out at 4340 nM in the assay on HeLa; 1640 nM in [3]; 480 nM in assay [4]; 2070 nM in the assay with A549; 1000 nM with MCF7 [5]. In the assay with HCT-116 [7], the inhibition result is “Active”.

Turning to `NC(=O)c1cc(-c2nc(N3CCOCC3)nc(N3CCOCC3)n2)ccc1O`, the inhibition at 10 µM is 32.7% in the assay on MCF7 [1] and 31.7% in assay [2].

`NC(=O)c1cc(-c2nc(N3CCOCC3)nc(N3CCOCC3)n2)ccc1OCc1cccc(F)c1`: the inhibition at 10 µM worked out at 26.2% in the assay on MCF7 [1] and 35.9% in assay [2].

Take `COc1cc(C(N)=O)cc(-c2nc(N3CCOCC3)nc(N3CCOCC3)n2)c1`: the inhibition at 10 µM in the assay with MCF7 [1] stood at 42.2%; in [2], 41.2%.

On to `NC(=O)c1cc(-c2nc(N3CCOCC3)nc(N3CCOCC3)n2)ccc1OCc1ccc(F)cc1`, for which the values for the inhibition at 10 µM (in the assay on MCF7 [1]; in assay [2]) were 54.9% and 66.9%, respectively. Further, the IC50 in the assay on HeLa was over 20000 nM; in assay [3] it was 3980 nM; in assay [4], 2870 nM; in the assay with A549 it was 11300 nM; with MCF7 [5], 5230 nM.

As for `CN(c1nc(-c2cc(C(N)=O)cc(C(F)(F)F)c2)nc(N2CCOCC2)n1)C1CCN(S(C)(=O)=O)CC1`, the inhibition at 10 µM was determined as 61.7% in the assay on MCF7 [1] and 72% in [2]. Further, the IC50 in the assay on HeLa came out at 7120 nM; in assay [3], 4630 nM; in [4], 1940 nM; in the assay on A549, 2360 nM; with MCF7 [5] it was 2130 nM.

The values above are taken from ChEMBL document CHEMBL3399917, “Design, synthesis and antiproliferative activity evaluation of m-(4-morpholinyl-1,3,5-triazin-2-yl)benzamides in vitro” (Bioorg Med Chem Lett, 2015).
